Laboratory results taken from US12116357B2, “Heteroaryl-triazole and heteroaryl-tetrazole compounds as pesticides” (Bayer Aktiengesellschaft, priority 2018, dated 2024).

Tests used:
Assay type in all cases: in vivo
Ctenocephalides felis [1] = assay: Ctenocephalides felis in-vitro contact test, adult cat flea; conditions: 5 μg/cm^2, after 48 hours, read-out: efficacy (fleas dead or moribund)
How it was run: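 Compound in acetone coated on glass tube walls (900 ppm solution, 5 μg/cm^2), solvent evaporated, then 5-10 adult fleas added and kept at room temperature. At 48 h, fleas put on a 45-50 °C plate for up to 5 min; those unable to climb scored dead or moribund, efficacy as % affected.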

Boophilus microplus = Boophilus microplus injection test; conditions: Rhipicephalus microplus, 168 h, 20 μg/animal, egg deposition after 7 days, read-out: efficacy (infertile eggs)
How it was run: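 Engorged adult female ticks, five per test, received a 1 μl abdominal injection of compound in DMSO, then were kept in a climate chamber. Fertile egg deposition checked after 7 days, with unclear eggs held until hatching at about 42 days. Efficacy 100% means all eggs infertile, 0% all fertile.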

Ctenocephalides felis [2] = assay: Ctenocephalides felis oral test; conditions: 48 h, 100 ppm in cattle blood, after 2 days
How it was run: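 Adult unfed cat fleas (~20) fed through parafilm on cattle blood containing compound (DMSO concentrate diluted in blood); blood held at 37° C., fleas at room temperature. Mortality (%) scored after 2 days.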

Meloidogyne incognita = Meloidogyne incognita test; conditions: 20 ppm, after 14 days
Experimental: • Solvent: 125.0 parts by weight of acetone
To produce a suitable preparation of active compound, 1 part by weight of active compound is mixed with the stated amount of solvent, and the concentrate is diluted with water to the desired concentration.
Vessels are filled with sand, a solution of the active ingredient, a suspension containing eggs and larvae of the southern root-knot nematode (Meloidogyne incognita) and salad seeds. The salad seeds germinate and the seedlings grow. Galls develop in the roots.
After 14 days the nematicidal activity is determined on the basis of the percentage of gall formation. 100% means no galls were found and 0% means the number of galls found on the roots of the treated plants was equal to that in untreated control plants.

Myzus persicae [3] = assay: Myzus persicae oral test; conditions: 120 h
How it was run: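 Mixed-population aphids feed through parafilm on compound solution (acetone concentrate diluted with water) combined with IPL41 insect medium (33%+15% sugar). Mortality (%) read after 5 days, 100% meaning all aphids killed.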

Nezara viridula = Nezara viridula spray test; conditions: 96 h
How it was run: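 Barley plants infested with N. viridula larvae sprayed with compound in acetone/DMF diluted in water with 1000 ppm emulsifier at the desired concentration. Mortality (%) scored after 4 days; 100% means all bugs killed.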

Nilaparvata lugens = Nilaparvata lugens spray test; conditions: 96 h
How it was run: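 Rice plants were sprayed with compound formulated in acetone/dimethylformamide and diluted in water containing alkylarylpolyglycol ether emulsifier, then infested with brown planthoppers. Percent mortality was scored after 4 days, where 100% means all insects killed.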

Phaedon cochleariae = Phaedon cochleariae spray test; conditions: 168 h, after 7 days
How it was run: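 Chinese cabbage leaf disks sprayed with compound in acetone/DMF diluted in water with 1000 ppm alkylarylpolyglycol ether emulsifier, then infested with mustard beetle larvae once dry. Mortality (%) scored after 7 days; 100% = all larvae killed, 0% = none.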

Spodoptera frugiperda = Spodoptera frugiperda spray test; conditions: 168 h
How it was run: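 Maize leaf sections were sprayed with compound formulated in acetone/DMF and diluted in water containing 1000 ppm emulsifier, then infested with fall armyworm larvae once dry. Percent mortality was scored after 7 days.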

[4] = test system: Tetranychus urticae (OP-Resistant); assay: Tetranychus urticae (OP-resistant) spray test; conditions: 144 h, after 6 days
Experimental: (§1) • Solvent: 78.0 parts by weight acetone • 1.5 parts by weight dimethylformamide • Emulsifier: alkylarylpolyglycol ether
(§2) To produce a suitable preparation of active compound, 1 part by weight of active compound is mixed with the stated amount of solvents and is diluted with water, containing an emulsifier concentration of 1000 ppm, to the desired concentration. Further test concentrations are prepared by dilution with emulsifier containing water.
French bean (Phaseolus vulgaris) leaf disks infected with all instars of the two spotted spidermite (Tetranychus urticae), are sprayed with a preparation of the active ingredient of the desired concentration.
After 6 days mortality in % is determined. 100% means all spider mites have been killed and 0% means none of the spider mites have been killed.

[5] = test system: Aedes aegypti strain MONHEIM; assay: Aedes aegypti test (surface treatment & contact assay); conditions: 24 hours after contact, read-out: efficacy (mortality); for mortality at 20 mg/m2: surface concentration 20 mg/m^2, 30 min exposure; for mortality at 4 mg/m2: surface concentration 4 mg/m^2, 30 min exposure
How it was run: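 Compound dissolved in acetone (2 mg/ml) with 2000 ppm rapeseed oil methyl ester, applied to glazed tile and acetone evaporated; adult mosquitoes exposed on the dried surface for 30 min. Percent mortality scored 24 h after contact.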

[6] = test system: Musca domestica strain WHO-N; assay: Musca domestica test (surface treatment & contact assay); conditions: 24 hours after contact, read-out: efficacy (mortality); for mortality at 4 mg/m2: surface concentration 4 mg/m^2, 30 min exposure; for mortality at 20 mg/m2: surface concentration 20 mg/m^2, 30 min exposure
How it was run: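 Test compound dissolved in acetone (2 mg/ml) with 2000 ppm RME, applied to glazed tile and acetone evaporated. Adult flies placed on dried surface for 30 min exposure. Mortality (%) scored 24 h after contact; 100% means all insects dead.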

[7] = test system: cattle ticks (Boophilus microplus) strane Parhurst, SP-resistant; assay: Boophilus microplus dip test; conditions: 100 ppm, egg deposition after 7 days
Experimental: • Test animal: cattle ticks (Boophilus microplus) strane Parhurst, SP-resistant • Solvent: dimethyl sulfoxide
To produce a suitable preparation of active compound, 10 mg of active compound are dissolved in 0.5 ml solvent, and the concentrate is diluted with water to the desired concentration.
This compound solution is pipetted into tubes. 8-10 engorged, adult, female cattle ticks (Boophilus microplus) are placed in perforated tubes. These tubes are immersed in the aqueous compound solution until the ticks are completely moistened. After the liquid has drained off, the ticks are transferred to a filter paper in a plastic tray and stored in a climate chamber.
After 7 days egg deposition of fertile eggs is monitored. Eggs where fertility is not visible are stored in a climate chamber till hatching after about 42 days. An efficacy of 100% means all eggs are infertile; 0% means all eggs are fertile.

Myzus persicae [8] = assay: Myzus persicae spray test; conditions: 120 h
Experimental: as §1, §2
Chinese cabbage (Brassica pekinensis) leaf disks infected with all instars of the green peach aphid (Myzus persicae), are sprayed with a preparation of the active ingredient of the desired concentration.
After 5 days mortality in % is determined. 100% means all aphids have been killed and 0% means none of the aphids have been killed.

[9] = test system: Blattella germanica strain PAULINIA; assay: Blattella germanica test (surface treatment & contact assay); conditions: 24 hours after contact, read-out: efficacy (mortality); for mortality at 4 mg/m2: surface concentration 4 mg/m^2, 30 min exposure; for mortality at 20 mg/m2: surface concentration 20 mg/m^2, 30 min exposure
Experimental: (§3) • Solvent: Aceton+2000 ppm rapeseed oil methyl ester (RME)
In order to produce a sufficient, active ingredient containing solution it is necessary to solve the test compound in the solvent-mix (acetone at 2 mg/ml/RME 2000 ppm). This solution is pipetted onto a glazed tile and after evaporation of the acetone, adult animals of the species Blattella germanica strain […] are placed onto the dried surface. The exposure time is 30 minutes.
(§4) Mortality in percent (%) is determined 24 hours after contact of the insects to the treated surface. 100% mortality means that all tested insects are dead, whereas 0% means that no insect died.

[10] = test system: Culex quinquefasciatus strain P00; assay: Culex quinquefasciatus test (surface treatment & contact assay); conditions: 24 hours after contact, read-out: efficacy (mortality); for mortality at 4 mg/m2: surface concentration 4 mg/m^2, 30 min exposure; for mortality at 20 mg/m2: surface concentration 20 mg/m^2, 30 min exposure
Experimental: as §3
(§5) In order to produce a sufficient, active ingredient containing solution it is necessary to solve the test compound in the solvent-mix (acetone at 2 mg/ml/RME 2000 ppm). This solution is pipetted onto a glazed tile and after evaporation of the acetone, adult mosquitoes of the species Culex quinquefasciatus strain P00 are placed onto the dried surface. The exposure time is 30 minutes.
as §4

[11] = test system: Anopheles funestus strain FUMOZ-R; assay: Anopheles funestus test (surface treatment & contact assay); conditions: surface concentration 20 mg/m^2, 30 min exposure, 24 hours after contact, read-out: efficacy (mortality)
Experimental: as §3
as §5, with “Anopheles funestus” for “Culex quinquefasciatus”, “FUMOZ-R (Hunt et al., Med. Vet. Entomol. 2005 September; 19(3): 271-275)” for “P00”
as §4

Row | SMILES | pest or weed control at 5 µg/cm2 (Ctenocephalides felis [1]) [%] | pest or weed control at 0.02 mg (Boophilus microplus) [%] | mortality at 100 ppm (Ctenocephalides felis [2]) [%] | mortality at 4 ppm (Myzus persicae [3]) [%] | mortality at 20 ppm (Myzus persicae [3]) [%] | mortality at 500 g/ha (Nezara viridula) [%] | mortality at 500 g/ha (Nilaparvata lugens) [%] | mortality at 500 g/ha (Phaedon cochleariae) [%] | mortality at 500 g/ha (Spodoptera frugiperda) [%] | mortality at 20 mg/m2 [5] [%] | mortality at 4 mg/m2 [6] [%] | mortality at 20 mg/m2 [6] [%] | mortality at 20 mg/m2 [9] [%] | further results
1 | CC(c1ncnn1-c1ncccn1)N(Cc1ccccn1)C(=O)c1cc(Cl)cc(C(F)(F)F)c1 (centres unmarked) [Example I-001, 3-Chloro-N-(pyridin-2-ylmethyl)-N-{1-[1-(pyrimidin-2-yl)-1H-1,2,4-triazol-5-yl]ethyl}-5-(trifluoromethyl)benzamide] | 100 | 100 | 100 | 100 | 100 | 100 | 90 | 100 | 100 | 90 to 100 | 90 to 100 | 90 to 100 |  | nematicidal activity (gall formation) (Meloidogyne incognita): 90%; mortality at 500 g/ha [4]: 95%
2 | CC(c1ncnn1-c1ncccn1)N(C(=O)c1cc(Cl)cc(C(F)(F)F)c1)C1CC1 (centres unmarked) [Example I-002] |  |  |  |  |  |  |  | 83 | 100 |  |  |  |  | nematicidal activity (gall formation) (Meloidogyne incognita): 100%
3 | CC(c1ncnn1-c1ncccn1)N(CCc1ccc(F)cc1)C(=O)c1cc(Cl)cc(C(F)(F)F)c1 (centres unmarked) [Example I-003] |  | 100 | 100 | 100 | 100 | 100 | 100 | 100 | 100 | 90 to 100 | 90 to 100 | 90 to 100 |  | efficacy (infertile eggs) [7]: 100%
4 | CC(c1ncnn1-c1ncccn1)N(CC1CS(=O)(=O)C1)C(=O)c1cc(Cl)cc(C(F)(F)F)c1 (centres unmarked) [Example I-004] |  | 100 | 100 | 100 | 100 | 100 | 100 | 100 | 100 | 90 to 100 | 90 to 100 | 90 to 100 | 80 to 100 | mortality at 500 g/ha (Myzus persicae [8]): 100%; mortality at 4 mg/m2 [9]: 80 to 100%
5 | CC(c1ncnn1-c1ncccn1)N(C(=O)c1cc(Cl)cc(C(F)(F)F)c1)C1COC1 (centres unmarked) [Example I-021] | 100 | 100 | 100 | 100 | 100 | 100 |  | 100 | 83 | 90 to 100 |  | 90 to 100 | 80 to 100 | mortality at 4 mg/m2 [5]: 80 to 100%
6 | CC(c1ncnn1-c1ncccn1)N(CCS(C)(=O)=O)C(=O)c1cc(Cl)cc(C(F)(F)F)c1 (centres unmarked) [Example I-022] | 100 | 100 | 100 | 100 | 100 |  |  | 100 | 100 | 90 to 100 | 90 to 100 | 90 to 100 | 80 to 100 | mortality at 4 mg/m2 [5]: 80 to 100%; mortality at 4 mg/m2 [10]: 85 to 100%; mortality at 20 mg/m2 [10]: 90 to 100%; mortality at 4 mg/m2 [9]: 80 to 100%
7 | CSCCN(C(=O)c1cc(Cl)cc(S(C)(=O)=O)c1)C(C)c1ncnn1-c1ccc(C#N)cn1 (centres unmarked) [Example I-035] | 100 |  |  | 100 |  | 100 | 90 |  | 100 | 90 to 100 | 90 to 100 | 90 to 100 |  | mortality at 500 g/ha (Myzus persicae [8]): 90%; mortality at 500 g/ha [4]: 90%; mortality at 4 mg/m2 [10]: 85 to 100%; mortality at 20 mg/m2 [10]: 90 to 100%; mortality at 20 mg/m2 [11]: 85 to 100%
